# Source: US10624917B2, “Compositions and methods useful for treating or preventing liver diseases or disorders, and promoting weight loss” (YALE UNIVERSITY, priority 2014, dated 2020)
# Entries after “also recorded” stand apart in the source; their conditions may differ.
# How the values were obtained:
# [1] = system: C57BL/6 mice on high-fat diet; assay: High-fat diet (HFD) NASH model; format: in vivo, mouse
# Description: FIGS. 21A-21C illustrate the finding that digoxin reduces liver damage, inflammation, glycolysis and total cholesterol. FIG. […] The liver tissues were performed by H & E staining, and the neutrophils were stained with CD11b/Ly6G double positive cells by FACS. Data are expressed as the mean±SD from 5 mice in each treatment group. *p<0.05 determined by Student's t-test. […] Data are expressed as the mean±SD from 5 mice in each treatment group. *p<0.05 determined by Student's t-test. FIG. 21C: The liver total RNA were isolated from as procedure from FIG. 21a, and subjected to illumina transcriptome analysis. Over 15 genes that most highly expressed were listed. Data are expressed as the mean±SD from 3 mice in each treatment group
# FIGS. 22A-22D illustrate the finding that digoxin reduces high fat feeding induced obesity in mice. Wild type C57BL/6 mice were supplied with high-fat diet food (Research diets D12451 45% fat) for 12 weeks with or without the concurrent IP injection of Digoxin (twice a week, 1.0 mg/kg) or PBS control. The body weight was carefully monitored as the change of each 3 day's average. […] FIG. 22A illustrates examples of mice on high-fat diet with (DIG) and without (Ctrl) digoxin. […] The ratio of white adipose tissue and bodyweight after 12 weeks is shown (FIG. 22C). […] Data are expressed as the mean±SD from 5 mice in each treatment group. *p<0.05 determined by Student's t-test.
# FIGS. 24A-24G illustrate the finding that digoxin limits hepatic steatosis and inflammation. […] The liver tissues were applied for H & E staining, and graphs show quantification of NAFLD histological activity score (FIGS. 24A-24B). The liver tissue inflammation was also determined by the neutrophil and monocyte infiltration, which measured by CD11b/Ly6G and CD11b/Ly6C double positive cells using FACS ([…]). Representative FACS flows from digoxin versus saline control are shown (FIGS. 24F-24G). The quantification of neutrophils and monocytes in digoxin versus saline control was performed. Serum ALT level in digoxin versus saline control was measured (FIGS. 24C-24D). The steatosis maker of triacylglcerol (TG) accumulation in the lever after digoxin treatment versus saline control was determined (FIG. 24E). All data throughout the figure are shown as the mean±SD from 5 mice in each group. Statistical significance was determined by one-way ANOVA. *p<0.05, **p<0.01 for each digoxin group versus saline control.
# (§1) C57BL/6J male mice were placed on a 45% high-fat diet (HFD) for […] with and without digoxin (ip 1 mg/kg twice a week). Digoxin, 1 mg/kg ip daily, in mice results in the therapeutic serum levels achieved in humans (0.5-2 ng/ml). Plasma ALT, liver histology, neutrophil staining, leukocytes profiling, mitochondrial reactive oxygen species (ROS) generation, and gene transcriptome microarrays were analyzed. The ability of digoxin to inhibit inflammasome in mouse and human macrophages was tested. The chronic plus binge model of alcoholic hepatitis and LPS/D-GalN hepatitis models were also performed.
# human macrophages = assay: Mitochondrial ROS production in human macrophages; format: cell-based; conditions: TLR and hydrogen peroxide stimulation
# [2] = system: mice, chronic plus binge model of alcoholic hepatitis; assay: Chronic plus binge model of alcoholic hepatitis; format: in vivo, mouse
# Description: as §1
# [3] = system: C57BL/6 mice challenged with LPS/D-galactosamine; assay: LPS/D-GalN hepatitis (acute liver injury) model; format: in vivo, mouse
# Description: FIGS. 23A-23D illustrate the finding that digoxin protects the severity of experimental acute liver failure. Digoxin was administrated intraperitoneally to C57BL/6 mice at dose level of 2, 1, 0.2, 0.05 mg/kg body weight and saline control for 1 hour, and then the mice were challenged with LPS (1 mg/kg body weight)/D-galactosamine (D-GalN) for 5 hours. The morphology of liver tissue was determined by H & E staining, and the inflammation was determined by the neutrophil infiltration of Gr-1 antibody staining Representative H & E stains (FIG. 23A, upper), and Gr-1 (FIG. 23A, lower) positive area of liver sections (original magnification ×100) from digoxin and saline control are illustrated. Graphs show quantification of injured (FIG. 23B) or Gr-1 (FIG. 23C) positive area by morphometry using Image J. *p<0.05 for each dosage of digoxin group versus saline control. The activity of the hepatic injury marker alanine transaminase (ALT) in serum level from digoxin versus saline control was measured (FIG. 23 D). All data throughout the figure are shown as the mean±SD. Statistical significance was determined by one-way ANOVA.
# FIGS. 25A-25H illustrate the finding that digoxin alleviates hepatic oxidative stress and inflammasome activation. C57BL/6 mice were injected intraperitoneally with digoxin (1 mg/kg) and PBS control for 1 hour, and then challenged with LPS (1 mg/kg)/D-GlaN (500 mg/kg) for 5 h; C57BL/6 mice were on HFD with concurrent intraperitoneal injection of digoxin (1 mg/kg) for 12 weeks. The cellular oxidative stress and intracellular ROS production was monitored by intraperitoneal injection of DHE in last 30 min before the mice sacrificed. Representative DHE stains in LPS/D-GlaN (FIG. 25A) and HFD (FIG. 25B) from digoxin versus saline control are illustrated. The quantification of DHE positive area in digoxin versus saline control was performed (FIG. 25A, lower, and FIG. 25B, lower). The total RNA from liver tissue was isolated, and applied for gene expression of proIL-1β, TNFα, NLRP3 and HIF1a (FIGS. 25C-25F). The total liver protein was applied for protein expression of HIF1α, caspase-1, proIL-1β by western blot (FIG. 25H). The serum IL-1β was measured by ELISA (FIG. 25G). All data throughout the figure are shown as the mean±SD from 5 mice in each group. Statistical significance was determined by one-way ANOVA. *p<0.05, **p<0.01 for each digoxin group versus saline control.
# as §1
# mouse macrophages = assay: Mitochondrial ROS production in mouse macrophages; format: cell-based; conditions: TLR and hydrogen peroxide stimulation
# in vivo = conditions: mouse, 1 mg/kg
# Description: FIG. 19 is a bar graph illustrating plasma digoxin levels in mice. Saline or digoxin were daily injected in mice at a dose of 1.0 mg/kg. Plasma digoxin levels measured 24 hours after the final injection were at or below the therapeutic range for humans (0.8-2 ng/mL).
# as §1
# [4] = system: IL-1β secretion and caspase-1 activation in mouse macrophages; assay: Inflammasome inhibition in mouse macrophages; format: cell-based
# Description: as §1
# [5] = HFD 12 weeks, IP twice a week 1.0 mg/kg
# [6] = HFD 12 weeks, ip 0.2 and 0.05 mg/kg twice a week, low dose-dependent manner
# [7] = ip 1 mg/kg, LPS/D-GlaN (5 h) and HFD (12 weeks) mice
# [8] = twice, a quarter and a twentieth of the human equivalent dose
smiles,measurement,setting,value
"C[C@H]1O[C@@H](O[C@@H]2[C@@H](O)C[C@H](O[C@@H]3[C@@H](O)C[C@@H](O[C@H]4CC[C@@]5(C)[C@H](CC[C@@H]6[C@@H]5C[C@@H](O)[C@]5(C)C(C7=CC(=O)OC7)CC[C@]65O)C4)O[C@@H]3C)O[C@@H]2C)C[C@H](O)[C@H]1O (stereo partly drawn) [digoxin, 4-[(3S,5R,8R,9S,10S,12R,13S,14S)-3-[(2S,4S,5R,6R)-5-[(2S,4S,5R,6R)-5-[(2S,4S,5R,6R)-4,5-dihydroxy-6-methyl-oxan-2-yl]oxy-4-hydroxy-6-methyl-oxan-2-yl]oxy-4-hydroxy-6-methyl-oxan-2-yl]oxy-12,14-dihydroxy-10,13-dimethyl-1,2,3,4,5,6,7,8,9,11,12,15,16,17-tetradecahydrocyclopenta[a]phenanthren-17-yl]-5H-furan-2-one]","fat deposition (liver oil red, TG content)","[1]; HFD 12 weeks, 1 mg/kg twice a week",reduces
same,glycolysis,[1]; [5],reduces
same,high fat feeding induced obesity,[1]; [5],reduces
same,liver damage,[1]; [5],reduces
same,serum total cholesterol,[1]; [5],reduces
same,hepatic steatosis,[1]; [6],limits
same,liver inflammation,[1]; [6],limits
same,"signal genes of ROS metabolism, antioxidant pathway and glycolysis (microarray)",[1]; HFD liver,down-regulated
same,serum ALT,"[1]; HFD+DIG, HFD alone 417±398 U/L, P<0.001",91±73 U/L
same,liver inflammation,"[1]; HFD, IP twice a week 1 mg/kg",reduces; also recorded: limits
same,hepatic steatosis,"[1]; HFD, ip 1 mg/kg twice a week",limits
same,histological injury,"[1]; HFD, ip 1 mg/kg twice a week",reduced
same,neutrophilic infiltrate,"[1]; HFD, ip 1 mg/kg twice a week",reduced
same,liver inflammation,[1]; digoxin started after 4 weeks HFD,significant reduction
same,liver neutrophil,"[1]; digoxin started after 4 weeks HFD, HFD alone 24.6%",14.3%
same,liver monocytes,"[1]; digoxin started after 4 weeks HFD, HFD alone 31.6%",19.1%
same,body weight / weight gain,[1]; mice on HFD,less weight gain; also recorded: changes
same,mitochondrial ROS production,human macrophages,dose-dependently inhibited
same,histological injury,[2],reduced
same,neutrophilic infiltrate,[2],reduced
same,serum ALT,[2],lower
same,histological injury,[3]; LPS/D-GalN hepatitis,reduced
same,neutrophilic infiltrate,[3]; LPS/D-GalN hepatitis,reduced
same,serum ALT,[3]; LPS/D-GalN hepatitis,lower
same,hepatic oxidative stress,[3]; [7],alleviates
same,inflammasome activation,[3]; [7],alleviates
same,severity of experimental acute liver failure,"[3]; ip 2, 1, 0.2, 0.05 mg/kg 1 hour before LPS/D-GalN for 5 hours",protects
same,inflammation in an acute liver injury model,"[3]; mouse, in vivo",inhibits
same,HIF-1α protein,[3]; [8],reduction
same,IL-1β protein,[3]; [8],reduction
same,cleaved (P10) caspase-1 protein,[3]; [8],reduction
same,liver HIF-1α transcripts,[3]; [8],reduction
same,liver Pro-IL-1β transcripts,[3]; [8],reduction
same,liver hemorrhage and necrosis,[3]; [8],improvement
same,pro-IL-1β protein,[3]; [8],reduction
same,mitochondrial ROS production,mouse macrophages,dose-dependently inhibited
same,concentration at 24 h,in vivo,0.8 to 2 ng/mL
same,concentration at 24 h,in vivo; ip,0.5 to 2 ng/mL
same,IL-1 β secretion,[4],inhibited
same,caspase-1 activation,[4],inhibited
